Experimental data reported in US20240050428A1 (Cullgen (Shanghai), Inc., priority 2020, published 2024).
Where two headings read alike, the source gives them in different places.

Key:
MV4;11 cells = experiment: Cell viability assay (CellTiter-Glo) in MV4;11 cells, alone or with gilteritinib; assay type: cell-based; settings: Homo sapiens, MV4;11 cells, CellTiter-Glo, read-out: MV4
MOLM-13 cells = experiment: Cell viability assay (CellTiter-Glo) in MOLM-13 cells, alone or with gilteritinib; assay type: cell-based; settings: Homo sapiens, MOLM-13 cells, CellTiter-Glo
[1] = MV4-11, 72 h, compound alone (without gilteritinib), three days, 11 IC50
[2] = MV4-11, 72 h, with gilteritinib 10 nM, three days, 11 IC50 gilteritinib
[3] = MOLM-13, 72 h, compound alone (without gilteritinib), three days, read-out: MOLM-13 IC50
[4] = MOLM-13, 72 h, with gilteritinib 20 nM, three days, read-out: MOLM-13 IC50 gilteritinib
[5] = MV4-11, 72 h, compound with gilteritinib 10 nM, three days, 11 IC50 gilteritinib
[6] = MOLM-13, 72 h, compound with gilteritinib 20 nM, three days, read-out: MOLM-13 IC50 gilteritinib
[7] = MV4-11, 72 h, without gilteritinib, 3 days, 11 IC50
[8] = MOLM-13, 72 h, without gilteritinib, 3 days, read-out: MOLM-13 IC50

SMILES | IC50 (MV4;11 cells; [1]) | IC50 (MV4;11 cells; [2]) | IC50 (MOLM-13 cells; [3]) | IC50 (MOLM-13 cells; [4]) | also measured
O=C1CCC(N2Cc3c(Nc4ccnc(Nc5cccc(C(=O)N6CCN(c7ccccn7)CC6)c5)n4)cccc3C2=O)C(=O)N1 (stereo not drawn) [GS-080, 3-(1-Oxo-4-((2-((3-(4-(pyridin-2-yl)piperazine-1-carbonyl)phenyl)amino)pyrimidin-4-yl)amino)isoindolin-2-yl)piperidine-2,6-dione] | > 1000 nM | 100 to 1000 nM | > 1000 nM | 100 to 1000 nM | 
CN1CCN(c2nccc(-c3cnn([C@H]4C[C@H](CCCNc5ccc6c(c5)C(=O)N(C5CCC(=O)NC5=O)C6=O)C4)c3)n2)CC1 (stereo partly drawn) [GS-436, 2-(2,6-dioxopiperidin-3-yl)-5-((3-(trans-3-(4-(2-(4-methylpiperazin-1-yl)pyrimidin-4-yl)-1H-pyrazol-1-yl)cyclobutyl)propyl)amino)isoindoline-1,3-dione] | > 1000 nM |  | > 1000 nM |  | IC50 (MV4;11 cells; [5]): 100 to 1000 nM; IC50 (MOLM-13 cells; [6]): 100 to 1000 nM
O=C1CCC(N2C(=O)c3ccc(NCCCCC(=O)N4CCC(c5cnc6ccccc6n5)CC4)cc3C2=O)C(=O)N1 (stereo not drawn) [GS-545, 2-(2,6-Dioxopiperidin-3-yl)-5-((5-oxo-5-(4-(quinoxalin-2-yl)piperidin-1-yl)pentyl)amino)isoindoline-1,3-dione] | > 1000 nM |  | 100 to 1000 nM |  | IC50 (MV4;11 cells; [5]): 100 to 1000 nM; IC50 (MOLM-13 cells; [6]): 10 to 100 nM
CN(Cc1ccc2c(c1)CN(C1CCC(=O)NC1=O)C2=O)C(=O)CCCC(=O)N1CCC(n2cc(-c3cnc4cccc(Br)c4n3)cn2)CC1 (stereo not drawn) [GS-058, 5-(4-(4-(8-Bromoquinoxalin-2-yl)-1H-pyrazol-1-yl)piperidin-1-yl)-N-((2-(2,6-dioxopiperidin-3-yl)-1-oxoisoindolin-5-yl)methyl)-N-methyl-5-oxopentanamide] | > 1000 nM | 100 to 1000 nM | 100 to 1000 nM | > 1000 nM | 
O=C1CCC(N2Cc3ccc(NCCCC4CC(n5cc(-c6cnc7ccccc7n6)cn5)C4)cc3C2=O)C(=O)N1 (stereo not drawn) [GS-131, 3-(1-Oxo-6-((3-(3-(4-(quinoxalin-2-yl)-1H-pyrazol-1-yl)cyclobutyl)propyl)amino)isoindolin-2-yl)piperidine-2,6-dione] | > 1000 nM | > 1000 nM | > 1000 nM | > 1000 nM | 
O=C1CCC(N2C(=O)c3ccc(NCCNc4cccc(N5CCN(c6ccccn6)CC5)c4)cc3C2=O)C(=O)N1 (stereo not drawn) [GS-372, 2-(2,6-Dioxopiperidin-3-yl)-5-((2-((3-(4-(pyridin-2-yl)piperazin-1-yl)phenyl)amino)ethyl)amino)isoindoline-1,3-dione] |  |  |  |  | IC50 (MV4;11 cells; 72 h, compound alone (without gilteritinib), three days, 11 IC50): 10 to 100 nM; IC50 (MV4;11 cells; 72 h, with gilteritinib 10 nM, three days, 11 IC50 gilteritinib): < 10 nM; IC50 (MOLM-13 cells; 72 h, compound alone (without gilteritinib), three days, read-out: MOLM-13 IC50): < 10 nM; IC50 (MOLM-13 cells; 72 h, with gilteritinib 20 nM, three days, read-out: MOLM-13 IC50 gilteritinib): < 10 nM
CCc1nc(C(N)=O)c(Nc2ccc(N3CCC(N4CCN(C)CC4)CC3)c(OC)c2)nc1NC1CCOCC1 [gilteritinib, reference compound] |  |  |  |  | IC50 (MV4;11 cells; [7]): 2.3 nM; IC50 (MOLM-13 cells; [8]): 7 nM
CN1CCC(Nc2ccnc(-c3cn([C@H]4C[C@H](CNc5ccc6c(c5)C(=O)N(C5CCC(=O)NC5=O)C6=O)C4)nc3C3CC3)c2)CC1 (stereo partly drawn) [GS-295, 5-(((trans-3-(3-Cyclopropyl-4-(4-((1-methylpiperidin-4-yl)amino)pyridin-2-yl)-1H-pyrazol-1-yl)cyclobutyl)methyl)amino)-2-(2,6-dioxopiperidin-3-yl)isoindoline-1,3-dione] | > 1000 nM | > 1000 nM | > 1000 nM | > 1000 nM | 
O=C1CCC(N2Cc3c(Nc4ccnc(N5CCC(n6cc(-c7cnc8ccccc8n7)cn6)CC5)n4)cccc3C2=O)C(=O)N1 (stereo not drawn) [GS-081, 3-(1-Oxo-4-((2-(4-(4-(quinoxalin-2-yl)-1H-pyrazol-1-yl)piperidin-1-yl)pyrimidin-4-yl)amino)isoindolin-2-yl)piperidine-2,6-dione] | > 1000 nM | > 1000 nM | > 1000 nM | > 1000 nM | 
O=C1CCC(N2C(=O)c3ccc(NCCCCCC(=O)N4CCC(n5cccn5)CC4)cc3C2=O)C(=O)N1 (stereo not drawn) [GS-003, 5-((6-(4-(1H-Pyrazol-1-yl)piperidin-1-yl)-6-oxohexyl)amino)-2-(2,6-dioxopiperidin-3-yl)isoindoline-1,3-dione] |  |  |  |  | IC50 (MV4;11 cells; MV4-11, 72 h, with 10 nM gilteritinib, 3 days, 11 IC50 gilteritinib): 191 nM; IC50 (MV4;11 cells; [7]): > 10000 nM; IC50 (MOLM-13 cells; MOLM-13, 72 h, with 20 nM gilteritinib, 3 days, read-out: MOLM-13 IC50 gilteritinib): 103 nM; IC50 (MOLM-13 cells; [8]): > 10000 nM
Cc1c(-c2cnc3ccccc3n2)cnn1[C@H]1C[C@H](CCCNc2ccc3c(c2)C(=O)N(C2CCC(=O)NC2=O)C3=O)C1 (stereo partly drawn) [GS-170, 2-(2,6-Dioxopiperidin-3-yl)-5-((3-(trans-3-(5-methyl-4-(quinoxalin-2-yl)-1H-pyrazol-1-yl)cyclobutyl)propyl)amino)isoindoline-1,3-dione] | > 1000 nM | 10 to 100 nM | > 1000 nM | 10 to 100 nM | 
O=C1CCC(N2C(=O)c3ccc(NCCc4ccc(-n5cc(-c6cnc7ccccc7n6)cn5)cc4)cc3C2=O)C(=O)N1 (stereo not drawn) [GS-117, 2-(2,6-Dioxopiperidin-3-yl)-5-((4-(4-(quinoxalin-2-yl)-1H-pyrazol-1-yl)phenethyl)amino)isoindoline-1,3-dione] | > 1000 nM | 100 to 1000 nM | > 1000 nM | 100 to 1000 nM | 

Now from value to compound, other results behind:

IC50 (MV4;11 cells; [1]) | IC50 (MV4;11 cells; [2]) | IC50 (MOLM-13 cells; [3]) | IC50 (MOLM-13 cells; [4]) | SMILES | also measured
10 to 100 nM | 10 to 100 nM | 10 to 100 nM | < 10 nM | O=C1CCC(N2C(=O)c3ccc(NCCCCCC(=O)N4CCC(n5cc(C6CCCCC6)cn5)CC4)cc3C2=O)C(=O)N1 (stereo not drawn) [GS-049, 5-((6-(4-(4-Cyclohexyl-1H-pyrazol-1-yl)piperidin-1-yl)-6-oxohexyl)amino)-2-(2,6-dioxopiperidin-3-yl)isoindoline-1,3-dione] | 
100 to 1000 nM | 10 to 100 nM | > 1000 nM | 100 to 1000 nM | O=C1CCC(N2C(=O)c3ccc(NC[C@H]4C[C@H](n5cc(-c6cc7cn[nH]c7cn6)c(C6CC6)n5)C4)cc3C2=O)C(=O)N1 (stereo partly drawn) [GS-293, 5-(((trans-3-(3-Cyclopropyl-4-(1H-pyrazolo[3,4-c]pyridin-5-yl)-1H-pyrazol-1-yl)cyclobutyl)methyl)amino)-2-(2,6-dioxopiperidin-3-yl)isoindoline-1,3-dione] | 
10 to 100 nM |  | 10 to 100 nM |  | O=C1CCC(N2C(=O)c3ccc(NCCC4CC5(C4)CC(n4cc(-c6cnc7ccccc7n6)cn4)C5)cc3C2=O)C(=O)N1 (stereo not drawn) [GS-564, 2-(2,6-Dioxopiperidin-3-yl)-5-((2-(6-(4-(quinoxalin-2-yl)-1H-pyrazol-1-yl)spiro[3.3]heptan-2-yl)ethyl)amino)isoindoline-1,3-dione] | IC50 (MV4;11 cells; [5]): < 10 nM; IC50 (MOLM-13 cells; [6]): < 10 nM
10 to 100 nM | < 10 nM | 100 to 1000 nM | 10 to 100 nM | O=C1CCC(N2C(=O)c3ccc(NCCCCCCn4cc(-c5cnc6cccc(Br)c6n5)cn4)cc3C2=O)C(=O)N1 (stereo not drawn) [GS-315, 5-((6-(4-(8-Bromoquinoxalin-2-yl)-1H-pyrazol-1-yl)hexyl)amino)-2-(2,6-dioxopiperidin-3-yl)isoindoline-1,3-dione] | 
10 to 100 nM | 10 to 100 nM | 100 to 1000 nM | 10 to 100 nM | O=C(Cn1cc(-c2cnc3ccccc3n2)c(C2CC2)n1)NCc1ccc2c(c1)C(=O)N(C1CCC(=O)NC1=O)C2=O (stereo not drawn) [GS-271, 2-(3-Cyclopropyl-4-(quinoxalin-2-yl)-1H-pyrazol-1-yl)-N-((2-(2,6-dioxopiperidin-3-yl)-1,3-dioxoisoindolin-5-yl)methyl)acetamide] | 
< 10 nM | < 10 nM | < 10 nM | < 10 nM | O=C1CCC(N2Cc3c(csc3CNC(=O)Nc3cccc(N4CCC(n5cc(-c6cnc7ccccc7n6)cn5)CC4)c3)C2=O)C(=O)N1 (stereo not drawn) [GS-093, 1-((5-(2,6-Dioxopiperidin-3-yl)-4-oxo-5,6-dihydro-4H-thieno[3,4-c]pyrrol-1-yl)methyl)-3-(3-(4-(4-(quinoxalin-2-yl)-1H-pyrazol-1-yl)piperidin-1-yl)phenyl)urea] | 
100 to 1000 nM | 100 to 1000 nM | > 1000 nM | 100 to 1000 nM | O=C1CCC(N2C(=O)c3ccc(NCCCCCn4cc(-c5cnc6ccccc6n5)cn4)cc3C2=O)C(=O)N1 (stereo not drawn) [GS-356, 2-(2,6-Dioxopiperidin-3-yl)-5-((5-(4-(quinoxalin-2-yl)-1H-pyrazol-1-yl)pentyl)amino)isoindoline-1,3-dione] | 
10 to 100 nM |  | 100 to 1000 nM |  | O=C1CCC(N2C(=O)c3ccc(NCCC[C@H]4C[C@H](n5cc(-c6cccc(N7CCC7)n6)cn5)C4)cc3C2=O)C(=O)N1 (stereo partly drawn) [GS-451, 5-((3-(trans-3-(4-(6-(azetidin-1-yl)pyridin-2-yl)-1H-pyrazol-1-yl)cyclobutyl)propyl)amino)-2-(2,6-dioxopiperidin-3-yl)isoindoline-1,3-dione] | IC50 (MV4;11 cells; [5]): 10 to 100 nM; IC50 (MOLM-13 cells; [6]): 10 to 100 nM
